Results taken from PubChem BioAssay AID1902 (Broad Institute, 2009).
The source made the active and inactive calls.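 How the source made its calls: active means EC50 no more than a set limit of log units above the highest dose; inactive means the rest.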

These molecules were tested against S. pyogenes SKKanGAS, kanamycin survival, BacTiterGlo, 6 h (assay: SKKanGAS survival reduction under kanamycin, dose response, streptokinase promoter inhibitor project, SKKanGAS strain, luminescence, dose confirmation (AID 1902);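 further: lower survival reflects blocked streptokinase promoter driving kanamycin resistance gene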).

In the case of `COC(=O)CSc1nnc(-c2cnccn2)n1C`, the EC50 is reported as > 15 µM (inactive).
With `O=C(CSc1nnc(NC(=O)C2CC(=O)N(c3ccc(F)cc3)C2)s1)NCc1ccco1` (stereo not given) the EC50 was > 15 µM (inactive).
For `Cc1ccc(C(=O)N2CCCC(CCC(=O)NCc3ccccc3F)C2)cn1` (stereo not given), the EC50 was > 15 µM (inactive).
With `Cc1ccc(C(=O)Nc2nnc(S(=O)(=O)N3CCN(c4ccc(F)cc4)CC3)s2)cc1` the EC50 was > 15 µM (inactive).
`Cc1noc(C)c1C(=O)Nc1nccs1` was tested, and the EC50 was > 15 µM (inactive).
In the case of `CCn1cc(CN2CCC(C(=O)Nc3ccc(Oc4cccnc4)cc3)CC2)cn1`, the EC50 is reported as > 15 µM (inactive).
With `O=C(O)CCSc1ccc([N+](=O)[O-])cc1[N+](=O)[O-]` the EC50 was > 15 µM (inactive).

Point of comparison: `C[C@H]1[C@H](C)CC[C@]2(C)CC[C@]3(C)C(=CC[C@@H]4[C@@]5(C)CC[C@@H](O)[C@](C)(C(=O)O)[C@@H]5CC[C@]43C)[C@H]12`, EC50 0.997 µM. Against it:
- Cc1ccc2nc(-c3ccc(NS(=O)(=O)c4ccc(F)c(F)c4)cc3)sc2c1 — 2.7-fold higher, 2.69 µM
- Cc1[nH]n(-c2ncc(-c3ccccc3)s2)c(=O)c1C(c1ccc(Br)cc1)C(C#N)C#N (stereo not given) — 5.8-fold higher, 5.83 µM
- CCOc1ccc(-n2cc(-c3ccccc3)c3c(=S)nc[nH]c32)cc1 — 5.7-fold higher, 5.73 µM
- Cc1[nH]c2ccccc2c1C(=O)COC(=O)c1ccc2c(=O)n3c(nc2c1)CCC3 — 1.5-fold higher, 1.52 µM
- O=C(Cc1csc(NC(=O)Nc2cccc(Cl)c2)n1)NCc1cccnc1 — 4.4-fold higher, 4.4 µM
- COc1cnc(-c2ccccn2)nc1Sc1ccc(Cl)cc1 — 5-fold higher, 4.96 µM
- O=C(O)CN1C(=O)/C(=C\c2cc(Br)ccc2OCc2ccc(Cl)cc2)SC1=S — 1.6-fold higher, 1.56 µM
- CN1C(=O)/C(=C/c2ccccc2Cl)Sc2ccc(C(=O)NCc3cccnc3)cc21 — 4.7-fold higher, 4.69 µM
- C/C(=N\NC(=S)NCCc1ccccc1)c1ccc(Cl)cc1Cl — 6.6-fold higher, 6.56 µM
- Cc1nn(-c2ccccc2)c(C)c1/C=N/NC(=O)c1cc(C23CC4CC(CC(C4)C2)C3)[nH]n1 — 7-fold higher, 6.98 µM
- CC(C)Cn1c(N)c(C(=O)NCc2cccs2)c2nc3ccccc3nc21 — 5.4-fold higher, 5.37 µM
- C=C(C)C1Cc2c(C)nn(-c3cccc4ccccc34)c2C1 (stereo not given) — 5.9-fold higher, 5.89 µM
- Cc1cc(C)cc(NC(=S)NCCSc2ccc(Cl)cc2)c1 — 14-fold higher, 13.5 µM
- S=c1[nH]nc(C2CCCCC2)n1/N=C/c1c(Cl)cccc1Cl — 8.4-fold higher, 8.36 µM
- O=C(/C=C/c1ccccc1)c1cc(Br)ccc(=O)c1O — within 1.5-fold, 1.33 µM
- COc1ccccc1C(=O)NNC(=S)NC(=O)c1ccco1 — 2.6-fold lower, 0.383 µM
- O=C(Oc1ccc(NC2=C(Cl)C(=O)c3ccccc3C2=O)cc1)c1ccc([N+](=O)[O-])cc1 — 7.5-fold higher, 7.48 µM
- O=c1c2ccccc2nc(COc2ccccc2)n1/N=C/c1cc([N+](=O)[O-])ccc1O — 1.7-fold higher, 1.73 µM
- CC(C)Cn1c(=O)c(C(=O)N/N=C/c2cccc(F)c2)c(O)c2ccccc21 — 1.8-fold higher, 1.83 µM
- O=c1c([N+](=O)[O-])cccn1Cc1ccc(F)cc1Cl — 3.4-fold higher, 3.38 µM
- CC(Oc1ccc(Cl)cc1Cl)C(=O)Nc1ccc(S(=O)(=O)Nc2cnc3ccccc3n2)cc1 (stereo not given) — 3.9-fold higher, 3.88 µM
- CC1=NN(C(N)=S)C(=O)C1N=Nc1c(Br)cc(Br)cc1Br (stereo not given) — 2.8-fold higher, 2.78 µM
- C/C(=N\Nc1ccc(Cl)c(Cl)c1)c1ccc(-n2ccnc2)cc1 — 1.9-fold higher, 1.86 µM
- O=C(COc1ccc(F)cc1Cl)Nc1nc(-c2ccccn2)cs1 — within 1.5-fold, 1.12 µM
- Cc1cccc(C)c1NC(=S)N/N=C/c1ccc(OCCC(C)C)cc1 — 2.5-fold higher, 2.49 µM
- Cn1c(=O)c(C(=O)NNC(=O)c2ccccc2F)c(O)c2ccccc21 — 4.3-fold higher, 4.25 µM
- Cc1nn(-c2ccc(Cl)cc2)c(Cl)c1/C=N/NC(=O)c1ccc(NS(=O)(=O)c2cccs2)cc1 — 2.1-fold higher, 2.06 µM
- Cc1cccc(NC(c2ccc(C)s2)c2ccc3ccc(C)nc3c2O)n1 (stereo not given) — 3.9-fold higher, 3.9 µM
- CCCCC(CC)CN1C(=O)/C(=C/c2ccncc2)SC1=S (stereo not given) — 2.8-fold higher, 2.83 µM
- COc1cccc(C(=O)OCC(=O)Nc2nnc(-c3ccccc3)o2)c1 — 8.7-fold higher, 8.68 µM
- Cn1cc(C(=O)c2ccc(Cl)cc2Cl)cc1C(=O)N/N=C(\N)COc1cccc(C(F)(F)F)c1 — 3.2-fold higher, 3.22 µM
- Cc1nc2ccccc2c(=O)n1/N=C/c1cc(Br)cc(Br)c1O — 3-fold higher, 3.04 µM
- Cc1cc(Oc2ccc(-c3ccccc3)cc2)nc(N2CCOCC2)n1 — 5.7-fold higher, 5.71 µM
- CCCCCCn1c(=O)c(C(=O)N/N=C/c2cccc(F)c2)c(O)c2ccccc21 — 2.1-fold higher, 2.11 µM
- CCc1ccc2c(c1)C1(NN=C(c3ccccc3)S1)C(=O)N2 (stereo not given) — 4.1-fold lower, 0.245 µM
- Clc1cc(CSc2ccccc2)nc(-c2ccccc2)n1 — 9-fold higher, 8.95 µM
- COc1ccc2nc(Nc3nc4cc5c(cc4s3)OCO5)sc2c1 — within 1.5-fold, 1.02 µM
- Cc1ccc(SC/C(O)=C(\C#N)c2nc3ccccc3s2)cc1 — 2.8-fold higher, 2.83 µM
- Cc1nc(Nc2nc(-c3ccccc3)cc(=O)[nH]2)nc2ccccc12 — 5.7-fold higher, 5.67 µM
- Cc1cccc(Nc2nc(N)nc(CN3CCN(c4ccccc4F)CC3)n2)c1 — 15-fold higher, 15.4 µM
- Cc1ccc(C)c(CSC2=NCCN2S(=O)(=O)c2ccccc2)c1 — 16-fold higher, 15.7 µM
- O=[N+]([O-])c1cc(Cl)c(O)c2ncccc12 — within 1.5-fold, 0.782 µM
- CC1CC(C)CN(c2ncc3c(n2)CC(c2ccccc2Cl)CC3=O)C1 (stereo not given) — 4.3-fold higher, 4.33 µM
- CCCCCCCCCc1nc2sc3c(c2c(=O)n1NC(=O)c1ccc([N+](=O)[O-])cc1)CC(C)(C)OC3 — 3.5-fold higher, 3.5 µM
- CC(C)C[C@H](NC(=O)c1[nH]cnc1C(=O)Nc1ccccc1)C(=O)OC(C)(C)C — 3.8-fold higher, 3.8 µM
- CC(Oc1ccc(Cl)cc1Cl)C(=O)NC1=NN(c2ccccc2)C(=O)C1 (stereo not given) — 2.9-fold higher, 2.92 µM
- N#Cc1ccccc1CN1C(=O)S/C(=C/c2cccn2-c2ccc(C(=O)O)cc2)C1=O — 7.1-fold higher, 7.03 µM
- Cc1ccc(S(=O)(=O)/N=C2\C=C(Nc3cccc(C(=O)O)c3)C(=O)c3ccccc32)cc1 — 2.4-fold higher, 2.43 µM
- CCOC(=O)c1cnc(-n2nc(C)cc2C)nc1NC1CCCC1 — 2.6-fold higher, 2.58 µM
- Cc1cccc(OC(=O)c2sc3ncn(C)c(=O)c3c2C)c1 — 4.1-fold higher, 4.09 µM
- CCOC(=O)c1cccc(NC(=S)N2CCN(c3ncc4c(=O)c(C(=O)O)cn(CC)c4n3)CC2)c1 — 6.3-fold higher, 6.28 µM
- CC1=C/C(=N\NC(=S)NCCc2ccccc2)CC(C)(C)C1 — 2.6-fold higher, 2.58 µM
- COc1cccc(C(=O)N/N=C(/c2ccccc2)c2ccccn2)c1 — 8.9-fold higher, 8.86 µM
- Cc1cccc(C(=O)NC(=S)NNC(=O)c2ccc(Cl)cc2)c1 — 5.3-fold lower, 0.187 µM
- CC(C)COc1ccc(-c2nn(-c3ccccc3)cc2/C=C2/SC(=S)N(CC(=O)O)C2=O)cc1 — 2.2-fold higher, 2.18 µM
- CCCCCCn1c(=O)c(C(=O)Nc2ncccc2C)c(O)c2ccccc21 — 2-fold lower, 0.507 µM
- Cc1cccc(-c2nnc(NC(=O)c3ccc(Cl)cc3)o2)c1 — 10-fold lower, 0.097 µM
- Clc1ccc(-c2ccc(/C=N/Nc3cc(N4CCOCC4)nc(N4CCOCC4)n3)o2)cc1 — 16-fold higher, 15.7 µM
- Cc1ccc(S(=O)(=O)Nc2cccc3ncccc23)s1 — 2.9-fold higher, 2.87 µM
- CC(C)C1C(c2ccccc2)N(C)C(c2ccccc2)CC1(O)c1ccccc1 (stereo not given) — 2.5-fold higher, 2.48 µM
- CC(C)c1ccc2[nH]c(O)c(N=NC(=O)c3cccc(S(=O)(=O)N4CCCCC4)c3)c2c1 — 7.1-fold higher, 7.1 µM
- COc1ccc(-c2nn(-c3ccccc3)cc2/C=C/C(=O)N2CCN(c3ccccn3)CC2)cc1 — 4.7-fold higher, 4.69 µM
- CC(C)Sc1cc(N2CCCC2)nc(-c2ccc(F)cc2)n1 — 5.9-fold higher, 5.9 µM
- C=C(C)C1Cc2c(C)nn(-c3nc(C)cc(C)n3)c2C1 (stereo not given) — within 1.5-fold, 0.694 µM
- COc1ccccc1N=Nc1ccc(O)c2ncccc12 — within 1.5-fold, 0.665 µM
- CC(C)=CCCC1(C)C=Cc2c(c(C)cc3c2[nH]c2cc(O)ccc23)O1 (stereo not given) — 2.7-fold higher, 2.65 µM
- O=c1cc(-c2ccccc2Cl)oc2ccc([N+](=O)[O-])c(O)c12 — 3.3-fold higher, 3.25 µM
- O=C(N/N=C/c1sc2ccccc2c1O)c1cccc2ccccc12 — 2.5-fold higher, 2.52 µM
- CCOC(=O)N1CCN(C(=O)c2ccc3c(=O)n(CCC4=CCCCC4)c(=S)[nH]c3c2)CC1 — 7.8-fold higher, 7.74 µM
- c1ccc2sc(SCSc3nc4ccccc4s3)nc2c1 — 2.9-fold higher, 2.86 µM
- O=C(/C(N=Nc1cccc([N+](=O)[O-])c1)=C(/O)c1ccc(Br)cc1)C(F)(F)F — 4.3-fold higher, 4.28 µM
- CCc1oc2ccccc2c1C(=O)c1cc(Br)c(O)c(Br)c1 — 6.6-fold higher, 6.55 µM
- CC1CCN(Cc2c(C(=O)N/N=C/c3cc(Br)ccc3O)nnn2-c2nonc2N)CC1 — 10-fold higher, 10.2 µM
- Cc1cc(C(F)(F)F)c(C#N)c(SCC(=O)Nc2nc3cc(Br)ccc3s2)n1 — 5.7-fold higher, 5.7 µM
- CCOC(=O)c1cnc(-n2cc(C)cn2)nc1Nc1ccccc1OCC — 4.2-fold higher, 4.18 µM
- Cc1cc(/C=N/n2cnnc2)c(C)n1-c1ccc(OCc2ccc(Cl)cc2Cl)cc1 — 2.1-fold higher, 2.1 µM
- CCCSc1nsc(NC(=O)C(c2ccccc2)c2ccccc2)n1 — 3-fold higher, 3.03 µM
- CCn1c(=O)c(C(=O)NNC(=O)c2ccccc2)c(O)c2ccccc21 — within 1.5-fold, 0.839 µM
- COCC1=C(C(=O)OC(C)OC(=O)OC(C)C)N2C(=O)[C@@H](NC(=O)/C(=N\OC)c3csc(N)n3)[C@H]2SC1 (stereo not given in full) — within 1.5-fold, 0.797 µM
- O=C1C(Nc2ccc(O)cc2)=C/C(=N/S(=O)(=O)c2cccs2)c2ccccc21 — 2-fold higher, 1.97 µM
- C/C(CC(=O)Nc1ccc(Cl)c(C(F)(F)F)c1)=N\NC(=O)c1ccccc1O — 4-fold higher, 3.98 µM
- Cc1ccc(Sc2cc(C)nc(-c3ccccn3)n2)cc1 — 12-fold higher, 12.4 µM
- CSCc1nnc(NC(=O)c2ccc(S(=O)(=O)N(CC(C)C)CC(C)C)cc2)o1 — within 1.5-fold, 0.724 µM
- Cc1ccc(C)c(C(=O)COC(=O)c2cc(Cl)nc3ccccc23)c1 — 11-fold higher, 10.9 µM
- CCc1nnc(NC(=O)c2cccc(C(=O)Nc3nnc(CC)s3)n2)s1 — within 1.5-fold, 0.961 µM
- Cc1nn(-c2ccccc2)c(Cl)c1/C=N/NC(=O)c1ccc(NS(=O)(=O)c2cccs2)cc1 — 2.3-fold higher, 2.34 µM
- Oc1cccc2ccc(/C=C/c3ccccc3Br)nc12 — 6.3-fold lower, 0.158 µM
- CC[C@@H](C)[C@H](CNC)NC[C@@H](Cc1cccc2ccccc12)NCCc1cccc(C(F)(F)F)c1 — 2.4-fold higher, 2.44 µM
- O=C(N/N=C/c1c[nH]c2ccccc12)c1[nH]c2ccc(Br)cc2c1-c1ccccc1 — 2.2-fold higher, 2.17 µM
- CCOC(=O)C1=C(C)NC2=C(C(=O)c3ccccc32)C1c1ccc([N+](=O)[O-])o1 (stereo not given) — 13-fold higher, 12.8 µM
- C/C(=N/NC(=O)c1cccs1)c1c(C)[nH]n(-c2nc3ccccc3s2)c1=O — 3.2-fold higher, 3.24 µM
- c1ccc(N2CCN(c3nc(-c4ccccn4)nc4ccccc34)CC2)cc1 — lower, < 0.06 µM
- CC1CCCCN1S(=O)(=O)c1ccc(C(=O)Nc2nnc(-c3cccs3)o2)cc1 (stereo not given) — 1.5-fold lower, 0.659 µM
- CN(C)c1ccc(O)c2c1CC1CC3[C@@H](N(C)C)C(=O)C(C(N)=O)=C(O)[C@]3(O)C(=O)C1=C2O (stereo not given in full) — 10-fold lower, 0.095 µM
- Cc1ccc(/C=C/c2ccc(=O)n(Cc3ccccc3Cl)n2)cc1 — 6-fold higher, 6 µM
- c1ccc(-c2nc(-c3nccc4ccccc34)oc2-c2ccccc2)cc1 — 3.5-fold higher, 3.52 µM
- COc1cccc(/C=C(/C(=O)OCC(=O)NC2CCCC(C)C2C)c2ccccc2)c1 (stereo not given) — 8.5-fold higher, 8.45 µM
